Reference: ChEMBL document CHEMBL1148695, “Synthesis and biological activity of nociceptin/orphanin FQ analogues substituted in position 7 or 11 with Calpha,alpha-dialkylated amino acids” (Bioorg Med Chem, 2007)

Biological target: Nociceptin receptor (Mus musculus, UniProt P35377)
Assay: Agonist activity at NOP receptor in Swiss mouse vas deferens assessed as effect on electrically stimulated contractions
Type: functional, tissue-based

Chain of Nociceptin receptor (P35377 whole entry): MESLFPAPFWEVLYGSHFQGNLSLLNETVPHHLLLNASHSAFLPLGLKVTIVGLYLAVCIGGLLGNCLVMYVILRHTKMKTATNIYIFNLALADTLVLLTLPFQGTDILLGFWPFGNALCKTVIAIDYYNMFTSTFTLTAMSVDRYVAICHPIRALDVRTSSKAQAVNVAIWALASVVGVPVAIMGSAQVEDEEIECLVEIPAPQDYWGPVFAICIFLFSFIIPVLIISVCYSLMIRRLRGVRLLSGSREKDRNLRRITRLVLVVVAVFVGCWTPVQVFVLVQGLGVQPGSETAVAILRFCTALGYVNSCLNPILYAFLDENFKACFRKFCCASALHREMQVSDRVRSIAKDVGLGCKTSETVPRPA

Row | SMILES | EC50 [µM]
1 | CC(C)C[C@H](NC(=O)[C@H](CCCCN)NC(=O)[C@H](CCCNC(=N)N)NC(=O)[C@H](C)NC(=O)[C@H](CO)NC(=O)[C@H](CCCCN)NC(=O)[C@H](CCCNC(=N)N)NC(=O)C(C)(NC(=O)CNC(=O)[C@@H](NC(=O)[C@H](Cc1ccccc1)NC(=O)CNC(=O)CNC(=O)[C@@H](N)Cc1ccccc1)[C@@H](C)O)C(C)C)C(=O)N[C@@H](C)C(=O)N[C@@H](CC(N)=O)C(=O)N[C@@H](CCC(N)=O)C(N)=O (stereo partly drawn) [listing 1 of 2 here] | 0.055
2 | CC[C@](C)(NC(=O)CNC(=O)[C@@H](NC(=O)[C@H](Cc1ccccc1)NC(=O)CNC(=O)CNC(=O)[C@@H](N)Cc1ccccc1)[C@@H](C)O)C(=O)N[C@@H](CCCNC(=N)N)C(=O)N[C@@H](CCCCN)C(=O)N[C@@H](CO)C(=O)N[C@@H](C)C(=O)N[C@@H](CCCNC(=N)N)C(=O)N[C@@H](CCCCN)C(=O)N[C@@H](CC(C)C)C(=O)N[C@@H](C)C(=O)N[C@@H](CC(N)=O)C(=O)N[C@@H](CCC(N)=O)C(N)=O [listing 1 of 2 here] | 0.024
3 | CC(C)C[C@H](NC(=O)[C@H](CCCCN)NC(=O)[C@H](CCCNC(=N)N)NC(=O)[C@H](C)NC(=O)[C@H](CO)NC(=O)[C@H](CCCCN)NC(=O)[C@H](CCCNC(=N)N)NC(=O)C(C)(NC(=O)CNC(=O)[C@@H](NC(=O)[C@H](Cc1ccccc1)NC(=O)CNC(=O)CNC(=O)[C@@H](N)Cc1ccccc1)[C@@H](C)O)C(C)C)C(=O)N[C@@H](C)C(=O)N[C@@H](CC(N)=O)C(=O)N[C@@H](CCC(N)=O)C(N)=O (stereo partly drawn) [listing 2 of 2 here] | 0.0275
4 | CC(C)C[C@H](NC(=O)[C@H](CCCCN)NC(=O)[C@H](CCCNC(=N)N)NC(=O)C(C)(NC(=O)[C@H](CO)NC(=O)[C@H](CCCCN)NC(=O)[C@H](CCCNC(=N)N)NC(=O)[C@H](C)NC(=O)CNC(=O)[C@@H](NC(=O)[C@H](Cc1ccccc1)NC(=O)CNC(=O)CNC(=O)[C@@H](N)Cc1ccccc1)[C@@H](C)O)C(C)C)C(=O)N[C@@H](C)C(=O)N[C@@H](CC(N)=O)C(=O)N[C@@H](CCC(N)=O)C(N)=O (stereo partly drawn) [listing 1 of 2 here] | 0.0148
5 | CC(C)C[C@H](NC(=O)[C@H](CCCCN)NC(=O)[C@H](CCCNC(=N)N)NC(=O)[C@H](C)NC(=O)[C@H](CO)NC(=O)[C@H](CCCCN)NC(=O)[C@H](CCCNC(=N)N)NC(=O)C(C)(CC(C)C)NC(=O)CNC(=O)[C@@H](NC(=O)[C@H](Cc1ccccc1)NC(=O)CNC(=O)CNC(=O)[C@@H](N)Cc1ccccc1)[C@@H](C)O)C(=O)N[C@@H](C)C(=O)N[C@@H](CC(N)=O)C(=O)N[C@@H](CCC(N)=O)C(N)=O (stereo partly drawn) [listing 1 of 2 here] | 0.0468
6 | CC[C@](C)(NC(=O)CNC(=O)[C@@H](NC(=O)[C@H](Cc1ccccc1)NC(=O)CNC(=O)CNC(=O)[C@@H](N)Cc1ccccc1)[C@@H](C)O)C(=O)N[C@@H](CCCNC(=N)N)C(=O)N[C@@H](CCCCN)C(=O)N[C@@H](CO)C(=O)N[C@@H](C)C(=O)N[C@@H](CCCNC(=N)N)C(=O)N[C@@H](CCCCN)C(=O)N[C@@H](CC(C)C)C(=O)N[C@@H](C)C(=O)N[C@@H](CC(N)=O)C(=O)N[C@@H](CCC(N)=O)C(N)=O [listing 2 of 2 here] | 0.0148
7 | CC(C)C[C@H](NC(=O)[C@H](CCCCN)NC(=O)[C@H](CCCNC(=N)N)NC(=O)[C@H](C)NC(=O)[C@H](CO)NC(=O)[C@H](CCCCN)NC(=O)[C@H](CCCNC(=N)N)NC(=O)C(C)(CC(C)C)NC(=O)CNC(=O)[C@@H](NC(=O)[C@H](Cc1ccccc1)NC(=O)CNC(=O)CNC(=O)[C@@H](N)Cc1ccccc1)[C@@H](C)O)C(=O)N[C@@H](C)C(=O)N[C@@H](CC(N)=O)C(=O)N[C@@H](CCC(N)=O)C(N)=O (stereo partly drawn) [listing 2 of 2 here] | 0.0759
8 | CC(C)C[C@H](NC(=O)[C@H](CCCCN)NC(=O)[C@H](CCCNC(=N)N)NC(=O)C(C)(NC(=O)[C@H](CO)NC(=O)[C@H](CCCCN)NC(=O)[C@H](CCCNC(=N)N)NC(=O)[C@H](C)NC(=O)CNC(=O)[C@@H](NC(=O)[C@H](Cc1ccccc1)NC(=O)CNC(=O)CNC(=O)[C@@H](N)Cc1ccccc1)[C@@H](C)O)C(C)C)C(=O)N[C@@H](C)C(=O)N[C@@H](CC(N)=O)C(=O)N[C@@H](CCC(N)=O)C(N)=O (stereo partly drawn) [listing 2 of 2 here] | 0.0195
